Active and inactive are the calls of the source. The calls are words filed in the database; no cut-off is given here.
What was measured:
[1] = target: Mitogen-activated protein kinase 10 (Homo sapiens, UniProt P53779); test: Inhibition of JNK3 Lys2 labeling site in human Huh-7 cells at 1 uM by KiNativ Profiling analysis relative to control; format: cell-based
[2] = target: T1, Aurora kinase A (Homo sapiens) (UniProt O14965); test: Inhibition of AurA ATP labeling site in human Huh-7 cell lysate at 1 uM by KiNativ Profiling analysis relative to control; format: subcellular
T1 sequence (whole entry): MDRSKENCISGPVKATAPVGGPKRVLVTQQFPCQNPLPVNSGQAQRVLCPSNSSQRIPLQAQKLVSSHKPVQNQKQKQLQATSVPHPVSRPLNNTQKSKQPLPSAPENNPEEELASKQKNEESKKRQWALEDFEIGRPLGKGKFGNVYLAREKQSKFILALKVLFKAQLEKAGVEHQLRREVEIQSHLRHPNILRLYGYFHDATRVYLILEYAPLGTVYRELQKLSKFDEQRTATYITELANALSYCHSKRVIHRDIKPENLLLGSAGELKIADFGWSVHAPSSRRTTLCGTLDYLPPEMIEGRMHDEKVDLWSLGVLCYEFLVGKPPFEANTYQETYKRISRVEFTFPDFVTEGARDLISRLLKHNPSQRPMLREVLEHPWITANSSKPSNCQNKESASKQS

[3] = target: Calcium/calmodulin-dependent protein kinase type II subunit alpha (Homo sapiens) (UniProt Q9UQM7); test: Inhibition of CaMK2a Lys2 labeling site in human Huh-7 cell lysate at 1 uM by KiNativ Profiling analysis relative to control; format: subcellular
[4] = target: T2, Serine/threonine-protein kinase D2 (Homo sapiens) (UniProt Q9BZL6); test: Inhibition of PRKD2 (unknown origin) at 1 uM by Ambit Kinomescan binding assay relative to control
T2 sequence (whole entry): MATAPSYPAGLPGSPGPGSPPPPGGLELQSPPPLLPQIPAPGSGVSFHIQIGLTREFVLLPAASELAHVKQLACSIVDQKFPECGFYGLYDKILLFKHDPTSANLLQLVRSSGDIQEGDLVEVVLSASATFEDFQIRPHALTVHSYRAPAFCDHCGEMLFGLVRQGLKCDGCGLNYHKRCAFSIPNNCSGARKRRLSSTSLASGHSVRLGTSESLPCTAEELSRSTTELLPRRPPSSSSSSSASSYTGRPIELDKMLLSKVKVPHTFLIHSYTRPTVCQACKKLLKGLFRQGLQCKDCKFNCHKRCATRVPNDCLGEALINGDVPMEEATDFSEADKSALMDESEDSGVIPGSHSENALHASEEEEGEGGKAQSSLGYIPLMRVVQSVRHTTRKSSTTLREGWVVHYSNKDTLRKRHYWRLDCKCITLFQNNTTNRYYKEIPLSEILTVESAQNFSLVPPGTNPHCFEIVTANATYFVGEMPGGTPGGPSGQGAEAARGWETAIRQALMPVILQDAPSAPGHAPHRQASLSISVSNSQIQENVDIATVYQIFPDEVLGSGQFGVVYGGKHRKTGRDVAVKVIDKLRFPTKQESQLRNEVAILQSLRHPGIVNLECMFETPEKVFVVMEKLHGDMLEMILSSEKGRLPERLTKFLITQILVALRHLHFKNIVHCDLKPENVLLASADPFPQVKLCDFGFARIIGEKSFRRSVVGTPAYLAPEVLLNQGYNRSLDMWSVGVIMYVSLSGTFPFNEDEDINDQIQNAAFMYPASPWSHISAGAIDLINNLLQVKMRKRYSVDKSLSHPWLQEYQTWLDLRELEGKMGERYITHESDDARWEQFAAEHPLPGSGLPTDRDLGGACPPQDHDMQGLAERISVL

[5] = target: Mitogen-activated protein kinase kinase kinase 1 (Homo sapiens) (UniProt Q13233); test: Inhibition of MAP3K1 (unknown origin) at 1 uM by Ambit Kinomescan binding assay relative to control; values are per cent of control
[6] = target: eIF-2-alpha kinase GCN2 (Homo sapiens) (UniProt Q9P2K8); test: Inhibition of GCN2 domain2 Lys2 labeling site in human A-375 cells at 0.5 uM by KiNativ Profiling analysis relative to control; format: cell-based
[7] = target: Cyclin-dependent kinase 4/cyclin D1 (Homo sapiens) (UniProt P11802+P24385); test: Inhibition of CDK4/cyclinD1 (unknown origin) at 1 uM by Ambit Kinomescan binding assay relative to control; values are per cent of control
[8] = target: Serine/threonine-protein kinase PAK 6 (Homo sapiens) (UniProt Q9NQU5); test: Inhibition of PAK6 (unknown origin) at 1 uM by Ambit Kinomescan binding assay relative to control; values are per cent of control
[9] = test system: Serine/threonine-protein kinase B-raf (Homo sapiens), P15056 [V600E]; test: Inhibition of BRAF V600E mutant (unknown origin) at 1 uM by Ambit Kinomescan binding assay relative to control
[10] = target: 5'-AMP-activated protein kinase catalytic subunit alpha-1 (Homo sapiens) (UniProt Q13131); test: Inhibition of AMPKa1 ATP Loop labeling site in human A-375 cells at 5 uM by KiNativ Profiling analysis relative to control; format: cell-based
[11] = target: Uncharacterized serine/threonine-protein kinase SBK3 (Homo sapiens) (UniProt P0C264); test: Inhibition of SgK110 (unknown origin) at 1 uM by Ambit Kinomescan binding assay relative to control
[12] = test system: Tyrosine-protein kinase ABL1 (Homo sapiens), P00519 [H396P]; test: Inhibition of phosphorylated ABL1 H396P mutant (unknown origin) at 1 uM by Ambit Kinomescan binding assay relative to control; values are per cent of control
[13] = target: Serine/threonine-protein kinase 4 (Homo sapiens) (UniProt Q13043); test: Inhibition of MST1 Lys2 labeling site harbouring DIKAGNILLNTEGHAK in human A-375 cells at 0.05 uM by KiNativ Profiling analysis relative to control
[14] = target: Cyclin-dependent kinase 1 (Homo sapiens) (UniProt P06493); test: Inhibition of CDC2 K2 labeling site harbouring DLKPQNLLIDDKGTIK in human Huh-7 cells at 1 uM by KiNativ Profiling analysis relative to control; format: cell-based
[15] = target: Serine/threonine-protein kinase B-raf (Homo sapiens, UniProt P15056); test: Inhibition of BRAF K2 labeling site in human Huh-7 cells at 1 uM by KiNativ Profiling analysis relative to control; format: cell-based
[16] = target: Serine/threonine-protein kinase N2 (Homo sapiens) (UniProt Q16513); test: Inhibition of PKN2 K2 labeling site in human Huh-7 cells at 1 uM by KiNativ Profiling analysis relative to control; format: cell-based
[17] = target: Cyclin-dependent kinase 2 (Homo sapiens) (UniProt P24941); test: Inhibition of CDK2 K2 labeling site in human Huh-7 cells at 1 uM by KiNativ Profiling analysis relative to control; format: cell-based
[18] = target: Death-associated protein kinase 1 (Homo sapiens) (UniProt P53355); test: Inhibition of DAPK1 (unknown origin) at 10 uM by Ambit Kinomescan binding assay

Serine/threonine-protein kinase 4 (Homo sapiens), sequence (Q13043 whole entry, looked up): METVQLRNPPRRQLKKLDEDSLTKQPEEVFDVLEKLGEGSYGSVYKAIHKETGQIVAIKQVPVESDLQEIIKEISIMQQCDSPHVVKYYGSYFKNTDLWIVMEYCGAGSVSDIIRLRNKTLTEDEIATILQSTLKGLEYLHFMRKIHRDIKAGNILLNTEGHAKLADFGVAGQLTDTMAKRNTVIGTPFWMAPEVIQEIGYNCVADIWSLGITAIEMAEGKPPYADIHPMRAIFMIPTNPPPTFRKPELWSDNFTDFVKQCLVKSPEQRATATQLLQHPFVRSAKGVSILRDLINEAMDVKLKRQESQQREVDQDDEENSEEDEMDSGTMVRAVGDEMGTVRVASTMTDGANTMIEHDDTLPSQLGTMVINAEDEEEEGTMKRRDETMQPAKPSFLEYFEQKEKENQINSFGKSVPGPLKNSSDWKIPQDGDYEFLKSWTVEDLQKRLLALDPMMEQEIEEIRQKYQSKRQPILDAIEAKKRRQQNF
5'-AMP-activated protein kinase catalytic subunit alpha-1 (Homo sapiens), sequence (Q13131 whole entry, looked up): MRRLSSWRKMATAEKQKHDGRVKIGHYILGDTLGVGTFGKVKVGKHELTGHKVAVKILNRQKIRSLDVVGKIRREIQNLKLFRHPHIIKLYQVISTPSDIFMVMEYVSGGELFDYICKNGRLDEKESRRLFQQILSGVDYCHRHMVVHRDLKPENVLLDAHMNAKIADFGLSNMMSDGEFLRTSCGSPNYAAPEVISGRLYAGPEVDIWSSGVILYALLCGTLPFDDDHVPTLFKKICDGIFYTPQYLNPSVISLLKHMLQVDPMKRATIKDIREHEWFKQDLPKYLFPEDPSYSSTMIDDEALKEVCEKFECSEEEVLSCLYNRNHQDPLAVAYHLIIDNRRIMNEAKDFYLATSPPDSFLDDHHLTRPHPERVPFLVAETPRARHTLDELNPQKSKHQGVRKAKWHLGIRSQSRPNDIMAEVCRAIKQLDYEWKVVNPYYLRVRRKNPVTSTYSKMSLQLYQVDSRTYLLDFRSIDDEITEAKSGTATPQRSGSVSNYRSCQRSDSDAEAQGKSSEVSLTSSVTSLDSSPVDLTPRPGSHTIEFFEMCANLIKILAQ
Serine/threonine-protein kinase N2 (Homo sapiens), sequence (Q16513 whole entry, looked up): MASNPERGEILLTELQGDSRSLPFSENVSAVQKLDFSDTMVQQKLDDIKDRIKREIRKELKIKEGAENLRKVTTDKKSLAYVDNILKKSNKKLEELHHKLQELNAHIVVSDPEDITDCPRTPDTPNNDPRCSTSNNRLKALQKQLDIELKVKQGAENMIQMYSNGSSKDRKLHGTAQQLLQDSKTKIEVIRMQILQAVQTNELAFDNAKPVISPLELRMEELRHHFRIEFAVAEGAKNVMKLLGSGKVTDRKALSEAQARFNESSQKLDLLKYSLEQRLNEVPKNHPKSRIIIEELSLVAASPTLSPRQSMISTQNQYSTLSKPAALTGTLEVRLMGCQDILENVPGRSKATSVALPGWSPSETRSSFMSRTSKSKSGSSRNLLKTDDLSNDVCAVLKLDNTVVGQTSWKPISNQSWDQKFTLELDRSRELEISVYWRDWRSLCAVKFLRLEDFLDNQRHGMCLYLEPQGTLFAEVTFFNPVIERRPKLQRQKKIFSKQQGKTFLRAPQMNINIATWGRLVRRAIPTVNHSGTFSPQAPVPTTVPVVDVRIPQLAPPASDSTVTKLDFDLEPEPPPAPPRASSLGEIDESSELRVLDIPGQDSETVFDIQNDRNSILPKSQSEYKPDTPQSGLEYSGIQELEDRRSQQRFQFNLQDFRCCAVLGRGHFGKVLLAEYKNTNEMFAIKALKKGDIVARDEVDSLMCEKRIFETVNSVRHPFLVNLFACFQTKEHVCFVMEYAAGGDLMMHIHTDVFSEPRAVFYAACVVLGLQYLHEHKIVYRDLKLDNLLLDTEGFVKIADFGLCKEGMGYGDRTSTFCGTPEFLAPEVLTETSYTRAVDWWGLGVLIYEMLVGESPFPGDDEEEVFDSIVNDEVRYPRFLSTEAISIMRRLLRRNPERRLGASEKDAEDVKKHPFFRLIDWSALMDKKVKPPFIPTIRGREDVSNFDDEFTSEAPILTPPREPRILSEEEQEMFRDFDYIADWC
Calcium/calmodulin-dependent protein kinase type II subunit alpha (Homo sapiens), sequence (Q9UQM7 whole entry): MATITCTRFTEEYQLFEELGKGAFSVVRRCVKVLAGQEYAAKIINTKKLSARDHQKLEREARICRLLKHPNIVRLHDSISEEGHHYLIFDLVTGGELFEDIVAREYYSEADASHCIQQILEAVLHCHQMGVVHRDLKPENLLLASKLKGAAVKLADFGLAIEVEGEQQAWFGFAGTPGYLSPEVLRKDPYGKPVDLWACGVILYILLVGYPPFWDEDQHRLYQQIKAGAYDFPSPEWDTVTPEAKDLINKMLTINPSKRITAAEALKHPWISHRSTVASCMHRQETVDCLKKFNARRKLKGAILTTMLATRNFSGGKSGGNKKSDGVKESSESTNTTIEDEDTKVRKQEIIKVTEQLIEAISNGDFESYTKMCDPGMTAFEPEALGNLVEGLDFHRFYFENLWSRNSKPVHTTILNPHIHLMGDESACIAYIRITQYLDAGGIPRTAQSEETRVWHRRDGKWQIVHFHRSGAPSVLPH
Serine/threonine-protein kinase PAK 6 (Homo sapiens), sequence (Q9NQU5 whole entry, looked up): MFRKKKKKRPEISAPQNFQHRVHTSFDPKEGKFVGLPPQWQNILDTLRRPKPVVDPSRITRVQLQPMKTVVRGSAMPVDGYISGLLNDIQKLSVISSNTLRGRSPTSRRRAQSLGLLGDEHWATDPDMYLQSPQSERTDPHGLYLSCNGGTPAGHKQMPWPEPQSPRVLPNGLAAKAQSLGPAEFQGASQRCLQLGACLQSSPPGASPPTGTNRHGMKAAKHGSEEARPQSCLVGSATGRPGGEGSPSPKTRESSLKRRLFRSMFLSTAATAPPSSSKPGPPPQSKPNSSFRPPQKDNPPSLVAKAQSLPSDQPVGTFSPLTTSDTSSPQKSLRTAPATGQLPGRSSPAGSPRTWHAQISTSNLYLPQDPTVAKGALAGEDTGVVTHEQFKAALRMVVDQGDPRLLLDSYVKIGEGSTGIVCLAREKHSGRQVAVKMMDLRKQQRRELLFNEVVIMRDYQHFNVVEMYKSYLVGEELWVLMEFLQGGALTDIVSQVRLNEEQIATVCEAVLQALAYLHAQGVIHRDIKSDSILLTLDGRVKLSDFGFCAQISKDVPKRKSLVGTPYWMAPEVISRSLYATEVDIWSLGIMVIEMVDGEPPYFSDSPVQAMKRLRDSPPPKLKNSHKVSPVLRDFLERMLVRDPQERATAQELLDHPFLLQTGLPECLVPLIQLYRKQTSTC
Serine/threonine-protein kinase B-raf, sequence (P15056 whole entry): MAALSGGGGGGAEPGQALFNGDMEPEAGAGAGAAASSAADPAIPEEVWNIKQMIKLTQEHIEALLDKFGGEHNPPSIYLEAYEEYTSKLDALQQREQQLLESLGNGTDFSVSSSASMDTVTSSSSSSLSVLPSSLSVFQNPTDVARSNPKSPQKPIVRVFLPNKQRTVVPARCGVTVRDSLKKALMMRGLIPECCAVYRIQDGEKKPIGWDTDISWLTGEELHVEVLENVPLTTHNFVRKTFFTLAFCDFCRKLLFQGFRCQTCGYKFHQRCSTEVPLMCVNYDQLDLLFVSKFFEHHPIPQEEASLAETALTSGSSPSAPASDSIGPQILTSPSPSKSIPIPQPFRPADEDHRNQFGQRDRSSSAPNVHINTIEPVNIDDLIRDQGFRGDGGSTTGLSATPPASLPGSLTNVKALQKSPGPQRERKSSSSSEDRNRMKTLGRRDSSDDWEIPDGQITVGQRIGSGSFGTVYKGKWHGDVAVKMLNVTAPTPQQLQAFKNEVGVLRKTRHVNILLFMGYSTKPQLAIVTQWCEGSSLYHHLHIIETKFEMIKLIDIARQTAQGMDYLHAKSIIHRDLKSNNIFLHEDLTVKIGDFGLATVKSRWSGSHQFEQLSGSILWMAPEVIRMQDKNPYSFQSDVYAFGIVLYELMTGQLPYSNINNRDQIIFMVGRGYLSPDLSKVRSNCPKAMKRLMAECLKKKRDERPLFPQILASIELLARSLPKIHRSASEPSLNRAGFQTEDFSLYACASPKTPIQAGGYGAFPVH
Cyclin-dependent kinase 1 (Homo sapiens), sequence (P06493 whole entry, looked up): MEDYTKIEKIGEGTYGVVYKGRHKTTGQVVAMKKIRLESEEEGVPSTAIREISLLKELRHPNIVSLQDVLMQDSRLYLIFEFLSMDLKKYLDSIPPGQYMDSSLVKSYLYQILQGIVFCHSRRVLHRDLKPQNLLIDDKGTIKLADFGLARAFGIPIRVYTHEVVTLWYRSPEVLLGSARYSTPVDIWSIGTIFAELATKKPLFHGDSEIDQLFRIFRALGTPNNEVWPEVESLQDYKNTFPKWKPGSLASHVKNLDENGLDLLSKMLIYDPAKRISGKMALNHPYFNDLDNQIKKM
Serine/threonine-protein kinase B-raf (Homo sapiens), P15056 [V600E], sequence (P15056 whole entry V600E): as the sequence (P15056 whole entry) above, with V600E counted along it
Uncharacterized serine/threonine-protein kinase SBK3 (Homo sapiens), sequence (P0C264 whole entry): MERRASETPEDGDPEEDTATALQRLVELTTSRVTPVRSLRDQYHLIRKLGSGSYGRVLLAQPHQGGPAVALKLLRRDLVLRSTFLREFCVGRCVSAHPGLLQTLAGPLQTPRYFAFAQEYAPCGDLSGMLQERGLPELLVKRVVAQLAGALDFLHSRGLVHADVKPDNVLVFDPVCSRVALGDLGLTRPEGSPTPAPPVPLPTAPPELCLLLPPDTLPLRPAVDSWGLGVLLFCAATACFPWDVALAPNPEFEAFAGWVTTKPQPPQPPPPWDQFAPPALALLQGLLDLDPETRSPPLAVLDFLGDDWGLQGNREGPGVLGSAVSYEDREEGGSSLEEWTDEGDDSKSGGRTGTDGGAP

Question: `CNc1cc(Oc2cc(C(=O)Nc3cc(N4CCN(C)CC4)cc(C(F)(F)F)c3)ccc2C)ncn1` was tested. Which inhibition [1] did it give?
Answer: 14.5%

Question: And the inhibition [2]?
Answer: 2.5%

Question: What about the inhibition [3] of the same compound?
Answer: 0.7%

Question: What does the source list for `CCN1CCN(Cc2ccc(NC(=O)c3ccc(C)c(/C=C/c4cnc5[nH]ccc5c4OC)c3)cc2C(F)(F)F)CC1`?
Answer: inhibition [4]: 81%; residual activity [5]: 100%; inhibition [6]: 44.6%; percent of control [7]: 100%; residual activity [8]: 100%; inhibition [9]: 7.4%; inhibition [10]: 9.1%; inhibition [11]: 45%; percent of control [12]: 0.8%; inhibition [13]: -7%

Question: Which results are given for `CCN1CCN(Cc2ccc(NC(=O)c3ccc(C)c(Oc4ccnc5[nH]ccc45)c3)cc2C(F)(F)F)CC1`?
Answer: inhibition [14]: 7.9%; inhibition [15]: 1.7%; inhibition [16]: -6.3%; inhibition [17]: 5%; inhibition [18]: inactive

— ChEMBL document CHEMBL5696442, “Discovery of type II inhibitors of TGFβ-activated kinase 1 (TAK1) and mitogen-activated protein kinase kinase kinase kinase 2 (MAP4K2)” (J Med Chem, 2015)
